Article PMC3240959 (2011)

Molecular target: T1, PfTrx-2 (Plasmodium falciparum thioredoxin-2, MAL13P1.225) (Plasmodium falciparum, UniProt Q8IDP4)
T1 sequence (Q8IDP4 28-157): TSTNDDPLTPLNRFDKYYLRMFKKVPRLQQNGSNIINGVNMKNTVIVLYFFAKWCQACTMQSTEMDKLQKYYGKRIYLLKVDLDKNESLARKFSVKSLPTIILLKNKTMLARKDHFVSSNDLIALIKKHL
Assay: insulin reduction
Type: biochemical

For O=C(O)CC([S][Au])C(=O)O (racemic) [ATM, Aurothiomalate], the IC50 was about 20 µM.
